The results in this text go back to ChEMBL document CHEMBL2321873, “1-(4-Phenylpiperazin-1-yl)-2-(1H-pyrazol-1-yl)ethanones as novel CCR1 antagonists” (Bioorg Med Chem Lett, 2013).

Calls of active or inactive are those of the source. No cut-off for these calls is given here.

What is called clearance is a measure of how efficiently the substance is removed, as volume per time. Usually half-life stands for how long it takes for the measured level to halve. A lower half-life goes with fast loss.

Data set [1] has as its target C-C chemokine receptor type 5 (Homo sapiens) (UniProt P51681). Description: Antagonist activity at CCR5 (unknown origin) assessed as inhibition of chemotaxis at 10 uM.
The test system of data set [2] is Rattus norvegicus. Description: Toxicity in Sprague-Dawley rat assessed as effect on body weight at 70 to 360 mg/kg, po after 7 days. In kind it is organism-based. On the set-up: dose 70-360 mg/kg, route oral. Particulars: in vivo, 168 h.
The subject of data set [3] is Rattus norvegicus. Kind of data set: Toxicity in Sprague-Dawley rat assessed as effect on blood chemistry at 70 to 360 mg/kg, po after 7 days. In kind it is organism-based. On the set-up: dose 70-360 mg/kg, route oral. Particulars: in vivo, 168 h.
For data set [4], the target named is C-C chemokine receptor type 5 (Homo sapiens) (UniProt P51681). Description: Antagonist activity at CCR5 (unknown origin) assessed as inhibition of calcium flux at 10 uM. In kind it is functional. A general note: Calcium flux is commonly read through the fluorescence of an indicator in the cells.
In data set [5] the target is T1, C-X-C chemokine receptor type 5 (Homo sapiens) (UniProt P32302).
T1 sequence (whole entry): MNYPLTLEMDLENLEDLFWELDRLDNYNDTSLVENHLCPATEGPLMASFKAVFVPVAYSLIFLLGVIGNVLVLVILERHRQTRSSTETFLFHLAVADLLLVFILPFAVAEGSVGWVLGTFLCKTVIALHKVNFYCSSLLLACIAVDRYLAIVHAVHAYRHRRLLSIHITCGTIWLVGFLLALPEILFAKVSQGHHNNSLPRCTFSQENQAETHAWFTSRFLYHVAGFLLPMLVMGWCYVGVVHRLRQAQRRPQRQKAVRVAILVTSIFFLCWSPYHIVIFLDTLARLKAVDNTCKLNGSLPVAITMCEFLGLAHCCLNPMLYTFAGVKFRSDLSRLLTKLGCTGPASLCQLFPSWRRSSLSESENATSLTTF
Description: Antagonist activity at CXCR5 (unknown origin) assessed as inhibition of calcium flux at 10 uM. The data set is classed as functional.

The target of data set [6] is T2, C-C chemokine receptor type 4 (Homo sapiens) (UniProt P51679).
T2 sequence (whole entry): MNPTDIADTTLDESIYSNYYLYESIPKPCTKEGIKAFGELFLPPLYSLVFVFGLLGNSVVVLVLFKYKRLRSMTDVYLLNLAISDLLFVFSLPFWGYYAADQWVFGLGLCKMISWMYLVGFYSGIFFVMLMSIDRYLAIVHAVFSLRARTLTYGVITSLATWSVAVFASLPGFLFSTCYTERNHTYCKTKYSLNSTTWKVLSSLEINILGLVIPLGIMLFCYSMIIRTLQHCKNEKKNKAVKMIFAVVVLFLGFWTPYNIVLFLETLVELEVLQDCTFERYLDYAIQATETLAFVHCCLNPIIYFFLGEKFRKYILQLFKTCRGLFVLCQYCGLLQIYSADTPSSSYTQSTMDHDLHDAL
Kind of data set: Antagonist activity at CCR4 (unknown origin) assessed as inhibition of chemotaxis at 10 uM.

Data set [7] concerns the target C-C chemokine receptor type 2 (Homo sapiens) (UniProt P41597). Kind of data set: Antagonist activity at CCR2 (unknown origin) assessed as inhibition of calcium flux at 10 uM. The data set is classed as functional.
Data set [8] addresses C-X-C chemokine receptor type 6 (Homo sapiens) (UniProt O00574). Kind of data set: Binding affinity to CXCR6 (unknown origin) at 10 uM by radioligand displacement assay. Background: Loss of bound radioactivity is the signal in a displacement assay; it reports binding, not function.
Data set [9] concerns the target T3, CX3C chemokine receptor 1 (Homo sapiens) (UniProt P49238).
T3 sequence (whole entry): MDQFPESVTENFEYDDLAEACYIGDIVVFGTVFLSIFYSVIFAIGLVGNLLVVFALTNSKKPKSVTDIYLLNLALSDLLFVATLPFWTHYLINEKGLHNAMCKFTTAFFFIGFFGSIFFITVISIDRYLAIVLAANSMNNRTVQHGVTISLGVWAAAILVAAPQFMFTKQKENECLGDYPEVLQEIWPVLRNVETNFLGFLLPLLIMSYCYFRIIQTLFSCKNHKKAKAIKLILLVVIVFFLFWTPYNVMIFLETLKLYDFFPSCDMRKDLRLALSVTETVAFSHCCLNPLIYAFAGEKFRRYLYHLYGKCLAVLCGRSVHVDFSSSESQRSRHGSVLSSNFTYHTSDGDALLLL
Description: Antagonist activity at CX3CR1 (unknown origin) assessed as inhibition of calcium flux at 10 uM. In kind it is functional.

Data set [10] is described as follows: Plasma clearance in Sprague-Dawley rat at 1 mg/kg, iv. The data set is classed as ADME, organism-based. On the set-up: dose 1 mg/kg, route intravenous.
Data set [11] addresses T4, C-X-C chemokine receptor type 1 (Homo sapiens) (UniProt P25024).
T4 sequence (whole entry): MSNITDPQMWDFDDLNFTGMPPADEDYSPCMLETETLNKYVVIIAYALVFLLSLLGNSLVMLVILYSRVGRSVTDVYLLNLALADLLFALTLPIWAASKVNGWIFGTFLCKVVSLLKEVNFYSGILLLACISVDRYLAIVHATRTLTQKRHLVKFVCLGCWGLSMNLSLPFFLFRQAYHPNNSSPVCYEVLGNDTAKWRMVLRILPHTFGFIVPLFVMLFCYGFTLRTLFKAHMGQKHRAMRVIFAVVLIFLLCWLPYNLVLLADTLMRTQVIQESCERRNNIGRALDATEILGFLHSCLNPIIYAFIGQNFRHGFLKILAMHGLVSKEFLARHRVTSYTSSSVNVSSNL
Description: Binding affinity to CXCR1 (unknown origin) at 10 uM by radioligand displacement assay.

The target of data set [12] is C-X-C chemokine receptor type 6 (Homo sapiens) (UniProt O00574). Kind of data set: Antagonist activity at CXCR6 (unknown origin) assessed as inhibition of chemotaxis at 10 uM.
The target in data set [13] is Atypical chemokine receptor 3 (Homo sapiens) (UniProt P25106). Description: Binding affinity to CXCR7 (unknown origin) at 10 uM by radioligand displacement assay.
The target of data set [14] is T5, C-C chemokine receptor-like 2 (Homo sapiens) (UniProt O00421).
T5 sequence (whole entry): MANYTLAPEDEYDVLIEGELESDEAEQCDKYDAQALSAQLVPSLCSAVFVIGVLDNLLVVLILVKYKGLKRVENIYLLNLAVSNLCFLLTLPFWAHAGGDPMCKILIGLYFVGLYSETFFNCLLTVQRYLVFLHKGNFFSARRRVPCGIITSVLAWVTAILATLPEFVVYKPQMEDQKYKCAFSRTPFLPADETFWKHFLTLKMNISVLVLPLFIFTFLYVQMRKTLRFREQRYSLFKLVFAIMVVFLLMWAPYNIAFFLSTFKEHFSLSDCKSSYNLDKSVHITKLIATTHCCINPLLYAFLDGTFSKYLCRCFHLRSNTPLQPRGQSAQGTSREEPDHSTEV
Description: Antagonist activity at CCR11 (unknown origin) assessed as inhibition of calcium flux at 10 uM. In kind it is functional.

A short description of data set [15]: Half life in Sprague-Dawley rat at 1 mg/kg, iv. Particulars: in vivo. On the set-up: dose 1 mg/kg, route intravenous. In kind it is ADME, organism-based.
For data set [16], the target named is T4, C-X-C chemokine receptor type 1 (Homo sapiens). Kind of data set: Antagonist activity at CXCR1 (unknown origin) assessed as inhibition of calcium flux at 10 uM. The data set is classed as functional.

Chain of C-C chemokine receptor type 5 (Homo sapiens) (P51681 whole entry, looked up): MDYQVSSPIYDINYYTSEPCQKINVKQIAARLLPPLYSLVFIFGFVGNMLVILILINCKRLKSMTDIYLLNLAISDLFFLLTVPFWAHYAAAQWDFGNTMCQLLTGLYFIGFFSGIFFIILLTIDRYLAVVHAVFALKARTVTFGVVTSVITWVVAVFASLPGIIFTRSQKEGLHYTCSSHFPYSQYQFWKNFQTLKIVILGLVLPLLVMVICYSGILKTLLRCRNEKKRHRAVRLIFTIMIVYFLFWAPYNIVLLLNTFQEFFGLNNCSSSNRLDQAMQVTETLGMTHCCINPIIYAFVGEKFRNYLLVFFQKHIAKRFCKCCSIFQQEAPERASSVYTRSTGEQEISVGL
Chain of C-X-C chemokine receptor type 6 (Homo sapiens) (O00574 whole entry, looked up): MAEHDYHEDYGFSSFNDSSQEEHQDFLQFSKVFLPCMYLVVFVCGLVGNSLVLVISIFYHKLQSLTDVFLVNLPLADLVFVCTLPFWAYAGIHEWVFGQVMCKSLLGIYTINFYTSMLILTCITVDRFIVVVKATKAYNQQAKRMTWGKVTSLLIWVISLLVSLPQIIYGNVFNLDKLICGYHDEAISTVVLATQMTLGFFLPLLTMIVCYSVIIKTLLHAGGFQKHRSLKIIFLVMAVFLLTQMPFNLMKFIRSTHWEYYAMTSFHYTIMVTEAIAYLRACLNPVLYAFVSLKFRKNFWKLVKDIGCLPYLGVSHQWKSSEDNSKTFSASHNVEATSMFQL
Chain of C-C chemokine receptor type 2 (Homo sapiens) (P41597 whole entry, looked up): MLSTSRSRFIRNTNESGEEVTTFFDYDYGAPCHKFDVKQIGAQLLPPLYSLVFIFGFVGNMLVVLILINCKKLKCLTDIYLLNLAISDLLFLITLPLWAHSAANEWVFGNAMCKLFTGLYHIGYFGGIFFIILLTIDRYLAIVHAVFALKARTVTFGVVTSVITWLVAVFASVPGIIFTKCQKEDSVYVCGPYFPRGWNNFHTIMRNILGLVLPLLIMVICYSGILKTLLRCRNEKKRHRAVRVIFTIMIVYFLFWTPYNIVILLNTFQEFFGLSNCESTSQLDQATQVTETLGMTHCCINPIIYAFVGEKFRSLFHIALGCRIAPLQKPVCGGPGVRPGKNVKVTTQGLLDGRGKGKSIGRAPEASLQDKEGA
Chain of Atypical chemokine receptor 3 (Homo sapiens) (P25106 whole entry): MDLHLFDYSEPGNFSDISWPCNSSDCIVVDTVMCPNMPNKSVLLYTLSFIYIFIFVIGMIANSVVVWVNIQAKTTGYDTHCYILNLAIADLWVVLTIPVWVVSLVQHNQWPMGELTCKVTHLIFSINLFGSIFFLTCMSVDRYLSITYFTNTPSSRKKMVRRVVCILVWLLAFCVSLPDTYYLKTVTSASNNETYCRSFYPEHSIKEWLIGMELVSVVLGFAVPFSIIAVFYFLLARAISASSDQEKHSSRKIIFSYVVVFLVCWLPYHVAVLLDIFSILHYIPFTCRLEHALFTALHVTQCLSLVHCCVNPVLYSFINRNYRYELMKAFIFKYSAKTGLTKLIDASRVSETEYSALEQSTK

Regarding `COc1cc(N2CCN(C(=O)Cn3nc(C(F)(F)F)c(Cl)c3C)CC2)ccc1Cl`, the inhibition entry in [1], in data set [4], in data set [5], in data set [6], in data set [7] and in data set [9] was “inactive” each time. For the same compound, the inhibition result in data set [12], in data set [14] and in data set [16] was “inactive” throughout. For the same compound, the Activity result in the data set with Rattus norvegicus [2] and in the data set on Rattus norvegicus [3] was “Non-toxic” each time. For the same compound, the result in data set [8], in [11] and in data set [13] was inactive. The compound also displayed a clearance in data set [10] of 20 mL/min/kg. The same compound gave a half-life in data set [15] of 2.2 h.
